Legend:
Type in all cases: in vivo
[1] = system: Alopecurus myosuroides (ALOMY); test: Post-emergence herbicidal action, greenhouse pot test (also comparative test C)
How it was run: (§1)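 Greenhouse pot plants in sandy loam were sprayed post-emergence at the one-leaf stage (2–3 weeks after sowing) with WP or EC formulations plus 0.5% additive at 600 l/ha water. Activity was rated visually after about 3 weeks versus untreated controls (100% = dead, 0% = like control); rates were 20 g/ha or less, and 5 g/ha or less in the comparative test.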

[2] = system: Echinochloa crus-galli (ECHCG); test: as above
How it was run: as §1

[3] = system: Matricaria inodora (MATIN); test: as above
How it was run: as §1

Setaria viridis (SETVI) = test: as above
How it was run: as §1

Brassica napus (BRSNW) = test: Post-emergence crop plant compatibility, greenhouse pot test; conditions: 1.25 g/ha, vs untreated controls
How it was run: (§2)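 Greenhouse-grown crop plants sprayed post-emergence at the one-leaf stage with WP or EC formulations plus 0.5% additive, at 600 l/ha water. Damage rated visually after about 3 weeks versus untreated controls (0% = like control, 100% = dead); suffixes a/b/c denote different dosages.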

Glycine max (GLXMA) = test: as above
How it was run: as §2

[4] = system: Triticum aestivum (TRZAS); test: as above; conditions: 1.25 g/ha, vs untreated controls
How it was run: as §2

Zea mays (ZEAMX) [5] = test: as above; conditions: 1.25 g/ha, vs untreated controls
How it was run: as §2

[6] = system: Abutilon theophrasti (ABUTH); test: Pre-emergence herbicidal action, greenhouse pot test; conditions: scored after about 3 weeks
Text: (§3) Seeds of monocotyledonous and dicotyledonous weed plants and crop plants were placed in plastic or organic planting pots and covered with soil. The compounds of the invention, formulated in the form of wettable powders (WP) or as emulsion concentrates (EC), were then applied to the surface of the covering soil as aqueous suspension or emulsion with addition of 0.5% additive at a water application rate equivalent to 600 l/ha (converted). After the treatment, the pots were placed in a greenhouse and kept under good growth conditions for the test plants. After about 3 weeks, the effect of the preparations was scored visually in comparison with untreated controls as percentages. For example, 100% activity=the plants have died, 0% activity=like control plants.
(§4) Tables B1 to B10 below show the effects of selected compounds of the general formula (I) according to Tables I.1 to I.33 on various harmful plants and at an application rate corresponding to 80 g/ha and less, which were obtained by the experimental method specified above. The appendices “a”, “b” and “c” give differentiation by different dosage with otherwise the same harmful plants tested.

[7] = system: Alopecurus myosuroides (ALOMY); test: as above; conditions: scored after about 3 weeks
Text: as §3, §4

[8] = system: Amaranthus retroflexus (AMARE); test: as above; conditions: scored after about 3 weeks
Text: as §3, §4

Avena fatua (AVEFA) = test: as above; conditions: 80 g/ha, scored after about 3 weeks
Text: as §3, §4

[9] = system: Digitaria sanguinalis (DIGSA); test: as above; conditions: scored after about 3 weeks
Text: as §3, §4

[10] = system: Echinochloa crus-galli (ECHCG); test: as above; conditions: 80 g/ha, scored after about 3 weeks
Text: as §3, §4

Lolium rigidum (LOLRI) = test: as above; conditions: 80 g/ha, scored after about 3 weeks
Text: as §3, §4

[11] = system: Matricaria inodora (MATIN); test: as above; conditions: scored after about 3 weeks
Text: as §3, §4

[12] = system: Pharbitis purpurea (PHBPU); test: as above; conditions: scored after about 3 weeks
Text: as §3, §4

Veronica persica (VERPE) = test: as above; conditions: scored after about 3 weeks
Text: as §3, §4

Zea mays (ZEAMX) [13] = test: Pre-emergence crop plant compatibility, greenhouse pot test; conditions: 20 g/ha
Text: as §3
The observed effects on selected crop plants are reported here in comparison to the untreated controls (values in %).

[14] = application rate of 5 g or less per hectare, tables C1 to C4
[15] = comparative test C, application rate 1.25 g/ha

With COCCOC(=O)COc1ccccc1Oc1cc(-n2c(=O)cc(C(F)(F)F)n(C)c2=O)c(F)cc1Cl [I.7-1, 2-Methoxyethyl (2-{2-chloro-4-fluoro-5-[3-methyl-2,6-dioxo-4-(trifluoromethyl)-3,6-dihydropyrimidin-1(2H)-yl]phenoxy}phenoxy)acetate] the pest or weed control at 5 g/ha ([1]; Alopecurus myosuroides, 504 h, 5 g/ha, rated visually after about 3 weeks vs untreated controls, 100% = plants have died, read-out: Post-emergence action at 5 g/ha against ALOMY in %) was 80%, the pest or weed control at 20 g/ha ([1]; Alopecurus myosuroides, 504 h, 20 g/ha, rated visually after about 3 weeks vs untreated controls, 100% = plants have died, read-out: Post-emergence action at 20 g/ha against ALOMY in %) was 100% and the “herbicidal efficacy against ALOMY by comparison with literature compound a-17 / 3-14” value [1, 14] was “distinct improvement in herbicidal efficacy”. For the same compound, the “Post-emergence action at 1.25 g/ha against ECHCG in %” value ([2]; 1.25 g/ha, rated visually after about 3 weeks vs untreated controls, 100% = plants have died) was 90%, the pest or weed control at 5 g/ha ([2]; Echinochloa crus-galli, 504 h, dosage 5 g/ha, read-out: Post-emergence action against ECHCG in %) was 100% and the pest or weed control at 20 g/ha ([2]; Echinochloa crus-galli, 504 h, dosage 20 g/ha, read-out: Post-emergence action against ECHCG in %) was 90%. The “herbicidal efficacy against ECHCG by comparison with literature compound a-17 / 3-14” value [2, 14] was “distinct improvement in herbicidal efficacy”, the “ECHCG (efficacy in %)” value [2, 15] was 90% and the pest or weed control at 1.25 g/ha ([3]; Tripleurospermum inodorum, 504 h, dosage 1.25 g/ha, read-out: Post-emergence action against MATIN in %) was 100%. For the same compound, the pest or weed control at 5 g/ha ([3]; Tripleurospermum inodorum, 504 h, dosage 5 g/ha, read-out: Post-emergence action against MATIN in %) was 100%, the pest or weed control at 20 g/ha ([3]; Tripleurospermum inodorum, 504 h, dosage 20 g/ha, read-out: Post-emergence action against MATIN in %) was 100% and the “herbicidal efficacy against MATIN by comparison with literature compound a-17 / 3-14” value [3, 14] was “distinct improvement in herbicidal efficacy”. For the same compound, the “MATIN (efficacy in %)” value [3, 15] was 100%, the pest or weed control at 20 g/ha (Setaria viridis (SETVI); Setaria viridis, 504 h, 20 g/ha, read-out: Post-emergence action against SETVI) was 100% and the pest or weed control at 1.25 g/ha (Setaria viridis (SETVI); Setaria viridis, 504 h, dosage 1.25 g/ha, read-out: Post-emergence action against SETVI in %) was 100%. For the same compound, the pest or weed control at 5 g/ha (Setaria viridis (SETVI); Setaria viridis, 504 h, dosage 5 g/ha, read-out: Post-emergence action against SETVI in %) was 100%, the “herbicidal efficacy against SETVI by comparison with literature compound a-17 / 3-14” value (Setaria viridis (SETVI); [14]) was “distinct improvement in herbicidal efficacy” and the “SETVI (efficacy in %)” value (Setaria viridis (SETVI); [15]) was 100%. For the same compound, the “Post-emergence action against BRSNW (crop plant compatibility)” value (Brassica napus (BRSNW)) was 20%, the “Post-emergence action against GLXMA in %” value (Glycine max (GLXMA); 1.25 g/ha) was 10% and the “Post-emergence action against GLXMA in %” value (Glycine max (GLXMA); 5 g/ha) was 10%. For the same compound, the “Post-emergence action against GLXMA in %” value (Glycine max (GLXMA); 20 g/ha) was 10%, the “Post-emergence action against TRZAS (crop plant compatibility)” value [4] was 20% and the “Post-emergence action against ZEAMX (crop plant compatibility)” value (Zea mays (ZEAMX) [5]) was 20%. The “Pre-emergence action against ABUTH in %” value ([6]; 20 g/ha) was 100%, the “Pre-emergence action against ABUTH in %” value ([6]; 80 g/ha) was 100% and the “Pre-emergence action against ALOMY in %” value ([7]; 20 g/ha) was 80%. For the same compound, the “Pre-emergence action against ALOMY in %” value ([7]; 80 g/ha) was 100%, the “Pre-emergence action against AMARE in %” value ([8]; 20 g/ha) was 100% and the “Pre-emergence action against AMARE in %” value ([8]; 80 g/ha) was 100%. For the same compound, the “Pre-emergence action against AVEFA in %” value (Avena fatua (AVEFA)) was 100%, the “Pre-emergence action against DIGSA in %” value ([9]; 20 g/ha) was 100% and the “Pre-emergence action against DIGSA in %” value ([9]; 80 g/ha) was 100%. For the same compound, the “Pre-emergence action against ECHCG in %” value [10] was 90%, the “Pre-emergence action against LOLRI in %” value (Lolium rigidum (LOLRI)) was 100% and the “Pre-emergence action against MATIN in %” value ([11]; 20 g/ha) was 100%. The “Pre-emergence action against MATIN in %” value ([11]; 80 g/ha) was 100%, the “Pre-emergence action against PHBPU in %” value ([12]; 20 g/ha) was 100% and the “Pre-emergence action against PHBPU in %” value ([12]; 80 g/ha) was 100%. For the same compound, the “Pre-emergence action against VERPE in %” value (Veronica persica (VERPE); 20 g/ha) was 100%, the “Pre-emergence action against VERPE in %” value (Veronica persica (VERPE); 80 g/ha) was 100% and the “Pre-emergence action against ZEAMX in %” value (Zea mays (ZEAMX) [13]) was 0%.

Reference: patent US20240025862A1, “SUBSTITUTED N-PHENYLURACILS AND SALTS THEREOF, AND USE THEREOF AS HERBICIDAL ACTIVE SUBSTANCES” (Bayer Aktiengesellschaft, priority 2020, published 2024)
